# Experimental data from the Bradley open melting point set (2014).
# Where “and” joins values, the source holds several entries; their conditions need not be identical. Equal values may be shown once.
row,Structure (SMILES),melting point
1,CC(=O)N1CCc2cc(Br)ccc21 [1-acetyl-5-bromoindoline],120 °C
2,COc1cccc(P(c2cccc(OC)c2)c2cccc(OC)c2)c1 [tris(3-methoxyphenyl)phosphine],114 °C
3,CCCCCc1ccc(O)cc1 [4-n-pentylphenol],24 °C
4,Cc1cc([N+](=O)[O-])ccc1Cl [2-chloro-5-nitrotoluene],43 °C
5,"Cc1c(N)cccc1N [2,6-diaminotoluene]",105 °C
6,"N#Cc1c(Cl)cccc1Cl [2,6-Dichlorobenzonitrile]",144 °C
7,Cc1cc(B(O)O)sc1C=O [5-formyl-4-methylthiophene-2-boronic acid],119 °C
8,CC(C)COC(=O)C(C)C [isobutyl_isobutyrate],-80 °C
9,"BrCCCCCBr [1,5-dibromopentane]",-40 °C
10,"ClCc1cccc(CCl)c1 [a,a'-dichloro-m-xylene]",36 °C
11,OCc1ccco1 [furfuryl alcohol],-31 °C
12,Cc1cccc([N+](=O)[O-])c1 [m-nitrotoluene],16 °C
13,CCCC(C)C1(CC)C(=O)NC(=O)NC1=O (stereo not drawn) [pentobarbital],130 °C
14,CSC [dimethyl_sulfide],-98 °C
15,O=CO [formic acid],8.3 °C and 8.32 °C
16,"CC(C)(C)O [tert-butyl alcohol, anhydrous]",25 °C
17,O=Cc1ccc(C(F)(F)F)cc1 [4-(trifluoromethyl)benzaldehyde],2 °C
18,CN[C@@H](C)[C@H](O)c1ccccc1 [Ephedrine],34 °C
19,Cc1ccc(N)cc1Cl [3-Chloro-4-methylaniline],26 °C
20,"OB(O)c1cc(Cl)c(F)cc1F [5-chloro-2,4-difluorobenzeneboronic acid]",220 °C
21,CC1(C)OC(CP(c2ccccc2)c2ccccc2)C(CP(c2ccccc2)c2ccccc2)O1 (stereo not drawn),87 °C
22,CCCCCCC(=O)O [heptanoic_acid],-6 °C
23,CN(C)c1ccc(C=O)c(Cl)c1 [2-chloro-4-dimethylaminobenzaldehyde],80 °C
24,FC(F)(Cl)Cl [Dichloro(difluoro)methane],-158 °C

row,Structure (SMILES),melting point
1,CCCCCCCCCCCCCCCCCCCCCC [N-docosane],45 °C
2,c1cc2ccc3ccc4ccc5ccc6ccc1c1c2c3c4c5c61 [coronene],438 °C and 440 °C
3,O=C(O)C(F)(F)C(F)(F)C(F)(F)C(F)(F)C(F)(F)C(F)(F)F [Tridecafluoroheptanoic acid],30 °C
4,CCCC(=O)OC [Methyl butyrate],-95 °C
5,OC1CCCCCCCCCCC1 [cyclododecanol],78 °C
6,"COc1ccc(B(O)O)c(OC)c1 [2,4-dimethoxybenzeneboronic acid]",118 °C
7,CCCCCN [Amylamine],-55 °C
8,CC(CCC(=O)O)C1CCC2C3CCC4CC(=O)CCC4(C)C3CC(O)C12C (stereo not drawn) [12-hydroxy-3-oxocholan-24-oic acid],108 °C
9,N#CCC#N [malononitrile],34 °C
10,CCCCCCCCCCCCCCCCCCCCCCC [N-tricosane],49 °C
11,N#CNC(=N)N [dicyandiamide],210 °C
12,Oc1ccccc1I [2-iodophenol],40 °C
13,CC(C)(C)N [tert-butylamine],-67 °C
14,CCC(=O)OC [Methyl propionate],-88 °C
15,"Oc1cccc(Cl)c1Cl [2,3-dichlorophenol]",59 °C
16,CCCCC1CCCCC1 [Butylcyclohexane],-75 °C
17,COc1cc(F)ccc1C(=O)O [4-fluoro-2-methoxybenzoic acid],135 °C
18,CC#N [Acetonitrile],-46 °C
19,CC(C)CBr [1-bromo-2-methylpropane],-117 °C and -118 °C
20,COc1ccc(C=C[N+](=O)[O-])cc1OCc1ccccc1 [2-(benzyloxy)-1-methoxy-4-(2-nitrovinyl)benzene],120 °C
21,Nc1ccc(I)cc1 [4-Iodoaniline],61 °C
22,CC=C(C)C [2-methyl-2-butene],-134 °C
23,BrCBr [dibromomethane],-53 °C
24,COc1ccc(C)cc1 [4-methylanisole],-50 °C

row,Structure (SMILES),melting point
1,"O=C1OC(=O)[C@H]2[C@@H]1[C@@H]1C=C[C@H]2O1 [exo-7-oxabicyclo[2.2.1]hept-5-ene-2,3-dicarboxylic anhydride]",119 °C
2,"CCSc1nnc(N)s1 [2-amino-5-ethylthio-1,3,4-thiadiazole]",132 °C
3,"O=C(O)c1csnn1 [1,2,3-thiadiazole-4-carboxylic acid]",228 °C
4,CN(C)C=O [dimethylformamide],-61 °C
5,C=CCCCCCCCCCCC [1-tridecene],-23 °C
6,O=C4\C=C3/[C@@H]([C@H]2CC[C@]1([C@@H](CC[C@]1(C#C)O)[C@@H]2CC3)CC)CC4 [(-)-levonorgestrel],236 °C
7,"CCN(CC)c1ccccc1 [N,N-diethylaniline]",-38 °C
8,N#CCCC#N [succinonitrile],56 °C
9,O=[N+]([O-])c1ccc(F)cc1 [1-fluoro-4-nitrobenzene],23 °C
10,"Cl/C=C\Cl [cis-1,2-dichloroethylene]",-80 °C
11,"CC1(C)O[C@@H](CO)[C@H](CO)O1 [2,3-o-isopropylidene-l-threitol]",47 °C
12,CNc1ccccc1 [N-Methylaniline],-57 °C
13,"Clc1ccc2c(Cl)ccnc2c1 [4,7-dichloroquinoline]",85 °C
14,OB(O)c1ccc(C(F)(F)F)cc1 [4-(trifluoromethyl)benzeneboronic acid],240 °C
15,COCCOCCOC [diethylene glycol dimethyl ether],-64 °C
16,CCC(C)(C)O [2-methyl-2-butanol],-8 °C
17,CCCOC(=O)C1=C(C)NC(C)=C(C(=O)OCCC)C1c1cccc(OC)c1O,167 °C
18,O=C4\C=C2/[C@]([C@H]1CC[C@@]3([C@@H](O)CC[C@H]3[C@@H]1CC2)C)(C)CC4 [testosterone],155 °C and 154 °C
19,"BrCCCCCCBr [1,6-dibromohexane]",-2 °C
20,[2H]C([2H])([2H])S(=O)C([2H])([2H])[2H] [Bis[(~2~H_3_)methyl] sulfoxide],18.4 °C
21,"CC(Br)C(C)(Br)Br (stereo not drawn) [2,3,3-tribromobutane]",2 °C
22,Cc1ccccc1O [o-Cresol],33 °C
23,Cn1ccnc1I [2-iodo-1-methylimidazole],81 °C

# Other lines, results leading:
row,melting point,Structure (SMILES)
1,210 °C,CC(=O)Nc1ccc(C2=NN(c3ccccc3)C(=O)C2)cc1
2,108 °C,O=C(c1ccncc1)c1ccc(Cl)cc1 [4-(4-chlorobenzoyl)pyridine]
3,33 °C,Cc1ccc(O)cc1 [p-cresol]
4,-27 °C,FC(F)(F)c1ccccc1 [(Trifluoromethyl)benzene]
5,38 °C,"O=C(c1ccccc1)c1c(F)c(F)c(F)c(F)c1F [2,3,4,5,6-pentafluorobenzophenone]"
6,84 °C,COc1ccc2ccccc2c1C=O [2-methoxy-1-naphthaldehyde]
7,-61 °C,CCCCCCc1ccccc1 [Hexylbenzene]
8,270 °C,O=C1CCC(N2C(=O)c3ccccc3C2=O)C(=O)N1 (stereo not drawn) [thalidomide]
9,162 °C,"COC(=O)c1ccc(C(=O)OC)nc1 [dimethyl pyridine-2,5-dicarboxylate]"
10,97 °C,N/N=C/c1ccccc1O [salicylaldehyde hydrazone]
11,83.8 °C,Cc1ccc(Sc2ccccc2NS(=O)(=O)c2ccc(C)cc2)cc1
12,25 °C,Nc1cccc(I)c1 [m-iodoaniline]
13,-96 °C,CC(C)c1ccccc1 [Isopropylbenzene]
14,46 °C,O=C(O)Cc1cccc(F)c1 [3-fluorophenylacetic acid]
15,254 °C,N=C1c2ccccc2C(=O)N1c1n[nH]c2ncccc12
16,122 °C,C=C(CC)C(=O)c1ccc(OCC(=O)O)c(Cl)c1Cl [Ethacrynic acid]
17,105 °C,"Oc1ccccc1O [1,2-Dihydroxybenzene]"
18,81 °C,"COc1ccccc1OCC(O)CO (stereo not drawn) [3-(2-methoxyphenoxy)-1,2-propanediol]"
19,81 °C,"CC(C)(C(=O)O)c1ccccc1 [alpha,alpha-dimethylphenylacetic acid]"

row,melting point,Structure (SMILES)
1,192 °C,N#CCc1ccc(C(=O)O)cc1 [p-cyanomethyl_benzoic_acid]
2,129 °C,CCCCNC(=O)NS(=O)(=O)c1ccc(C)cc1 [tolbutamide]
3,153 °C,CCCCOc1ccc(CC(=O)NO)cc1 [bufexamac]
4,-4 °C,CCc1cccc(O)c1 [3-ethylphenol]
5,270 °C,O=C(O)c1ccc(I)cc1 [4-iodobenzoic acid]
6,88 °C,O=C(CCl)Nc1ccccc1[N+](=O)[O-] [2-chloro-2'-nitroacetanilide]
7,230 °C,Cc1cccc(Nc2ccccc2C(=O)O)c1C [Mefenamic acid]
8,40 °C,Cc1c(Br)cccc1[N+](=O)[O-] [2-bromo-6-nitrotoluene]
9,118 °C,Cc1ccccc1CNC(=O)c1ccccc1 [N-(2-methylbenzyl)benzamide]
10,148 °C,N#Cc1ccc(O)c(Cl)c1 [3-chloro-4-hydroxybenzonitrile]
11,167 °C,O=C(O)c1ccc(OCc2ccccc2)cc1F [4-benzyloxy-2-fluorobenzoic acid]
12,46 °C,OCc1ccc(-c2ccccc2)cc1 [4-biphenylmethanol]
13,259 °C,O=C(O)C1=NN(c2ccccc2)C(=O)C1=CC1C(=O)N(c2ccccc2)N=C1C(=O)O (stereo not drawn)
14,21 °C,"O=C(CC(=O)C(F)(F)F)c1ccco1 [4,4,4-trifluoro-1-(2-furyl)-1,3-butanedione]"
15,176 °C,O=c1c2ccccc2oc2ccccc12 [xanthone]
16,32 °C,CC(=O)c1ccc(C(F)(F)F)cc1 [4'-(trifluoromethyl)acetophenone]
17,104 °C,"NNc1cc(Cl)ccc1Cl [2,5-dichlorophenylhydrazine]"
18,130 °C,O=Cc1ccc(O)c(Cl)c1 [3-chloro-4-hydroxybenzaldehyde]
